We go through 20 molecules from ChEMBL document CHEMBL4819077, “Design, synthesis, and biological evaluation of diosgenin-indole derivatives as dual-functional agents for the treatment of Alzheimer's disease” (Eur J Med Chem, 2021).

Series [1] relates to SH-SY5Y. Nature of the series: Cytotoxicity against human SH-SY5Y cells assessed as reduction in cell viability measured after 24 hrs by MTT assay. The format is cell-based.
Series [2] has as its system SH-SY5Y. Nature of the series: Neuroprotection against H202-induced oxidative stress in human SH-SY5Y cells assessed as cell protection at 10 uM preincubated for 2 hr before H202 challenge and measured after 24 hrs by MTT assay. It is filed as functional. For orientation: Tetrazolium dyes change colour on reduction, which living cells bring about.
Series [3] has as its system SH-SY5Y. Nature of the series: Neuroprotection against 6-OHDA-induced oxidative stress in human SH-SY5Y cells assessed as cell protection at 10 uM preincubated for 2 hr before 6-OHDA challenge and measured after 24 hrs by MTT assay. It is filed as functional. To be noted: time 26 hrs.
The subject of series [4] is SH-SY5Y. Nature of the series: Neuroprotection against Abeta-induced oxidative stress in human SH-SY5Y cells assessed as cell protection at 10 uM incubated for 2 hr before Abeta(1-42) challenge and measured after 24 hrs by MTT assay. It is filed as functional. To be noted: time 26 hrs.
The test system of series [5] is Mus musculus. Description: Neuroprotection against icv infused amyloid beta (1 to 42)-induced ICR mouse model of Alzheimer's disease assessed as rescue of decrease neuronal cells in hippocampal at to 2 mg/kg, po administered daily for 7 days by HE staining. It is filed as functional, organism-based. The note with it: time 7.0 day.
The test system of series [6] is Mus musculus. Nature of the series: Improvement in learning and spatial memory in icv infused amyloid beta (1 to 42)-induced ICR mouse model of Alzheimer's disease assessed as improved target quadrant exploration time at to 2 mg/kg, po administered daily for 7 days starting from 7 days post surgery by Morris water maze test. It is filed as functional, organism-based. To be noted: time 7.0 day.

Series [7] concerns Mus musculus. Description: Neuroprotection against icv infused amyloid beta (1 to 42)-induced ICR mouse model of Alzheimer's disease assessed as rescue of pyknotic nucleus in hippocampal at to 2 mg/kg, po administered daily for 7 days by HE staining. It is filed as functional, organism-based. To be noted: time 7.0 day.

Active and inactive are the calls of the source. No cut-off for these calls is given here.

For `C[C@@H]1CC[C@@]2(OC1)O[C@H]1C[C@H]3[C@@H]4CCc5cc(OC(=O)NCCc6c[nH]c7cc(F)ccc67)ccc5[C@H]4CC[C@]3(C)[C@H]1[C@@H]2C`, the Activity entry with SH-SY5Y [1] is given as “Non-Toxic”; in the series on SH-SY5Y [2], 35.8%; with SH-SY5Y [3] it was 40.2%; in the series with SH-SY5Y [4], 42.5%.
Turning to `COc1cc2c(cc1OC)C(=O)C(CC1CCN(Cc3ccccc3)CC1)C2` (configuration not stated), the result with Mus musculus [5], in the series with Mus musculus [6] and with Mus musculus [7] was Active.
Regarding `COc1ccc2[nH]cc(CC(C)NC(=O)Oc3ccc4c(c3)CC[C@@H]3[C@@H]4CC[C@]4(C)[C@@H]5[C@H](C[C@@H]34)O[C@]3(CC[C@@H](C)CO3)[C@H]5C)c2c1` (some centres not stated), the Activity entry in the series with SH-SY5Y [1] is reported as “Non-Toxic”; in the series with SH-SY5Y [2] it was 43.6%; in the series on SH-SY5Y [3] it was 25.8%; with SH-SY5Y [4], 37.2%.
With `COc1ccc2[nH]cc(CC(=O)Oc3ccc4c(c3)CC[C@@H]3[C@@H]4CC[C@]4(C)[C@@H]5[C@H](C[C@@H]34)O[C@]3(CC[C@@H](C)CO3)[C@H]5C)c2c1`, the Activity entry is recorded as “Non-Toxic” in the series with SH-SY5Y [1], 26.9% with SH-SY5Y [2], 57.4% in the series with SH-SY5Y [3] and 30.4% in the series with SH-SY5Y [4].
Consider `C[C@@H]1CC[C@@]2(OC1)O[C@H]1C[C@H]3[C@@H]4CCc5cc(OC(=O)NCCc6c[nH]c7ccc(F)cc67)ccc5[C@H]4CC[C@]3(C)[C@H]1[C@@H]2C`, for which the Activity entry was “Non-Toxic” in the series on SH-SY5Y [1], 43.4% in the series with SH-SY5Y [2], 47.7% with SH-SY5Y [3] and 44.8% with SH-SY5Y [4].
In the same order, the values of `COc1ccc2c(CCNC(=O)Oc3ccc4c(c3)CC[C@@H]3[C@@H]4CC[C@]4(C)[C@@H]5[C@H](C[C@@H]34)O[C@]3(CC[C@@H](C)CO3)[C@H]5C)c[nH]c2c1` are “Non-Toxic”, 50%, 47.7% and 43.7%.
Regarding `C[C@@H]1CC[C@@]2(OC1)O[C@H]1C[C@H]3[C@@H]4CCc5cc(OC(=O)NCCc6c[nH]c7ccc(Br)cc67)ccc5[C@H]4CC[C@]3(C)[C@H]1[C@@H]2C`, the Activity entry with SH-SY5Y [1] is given as “Non-Toxic”; in the series on SH-SY5Y [2] it was 29.6%; in the series with SH-SY5Y [3], 27.9%.
In the case of `Cc1ccc2[nH]cc(CCNC(=O)Oc3ccc4c(c3)CC[C@@H]3[C@@H]4CC[C@]4(C)[C@@H]5[C@H](C[C@@H]34)O[C@]3(CC[C@@H](C)CO3)[C@H]5C)c2c1`, the Activity entry was “Non-Toxic” with SH-SY5Y [1], 49.1% with SH-SY5Y [2], 27.7% in the series on SH-SY5Y [3] and 34.2% in the series on SH-SY5Y [4].
For the molecule `C[C@@H]1CC[C@@]2(OC1)O[C@H]1C[C@H]3[C@@H]4CCc5cc(OC(=O)NCCc6c[nH]c7ccc(Cl)cc67)ccc5[C@H]4CC[C@]3(C)[C@H]1[C@@H]2C`, the values for the Activity entry with SH-SY5Y [1], in the series on SH-SY5Y [2] and with SH-SY5Y [3] were “Non-Toxic”, 38.6% and 15.8%, respectively.
For `Cc1ccc2[nH]cc(CC(=O)Oc3ccc4c(c3)CC[C@@H]3[C@@H]4CC[C@]4(C)[C@@H]5[C@H](C[C@@H]34)O[C@]3(CC[C@@H](C)CO3)[C@H]5C)c2c1` the same measures were “Non-Toxic”, 14.6% and 18.8%.
In the same order, the values of `C[C@@H]1CC[C@@]2(OC1)O[C@H]1C[C@H]3[C@@H]4CCc5cc(OC(=O)Cc6c[nH]c7ccc(F)cc67)ccc5[C@H]4CC[C@]3(C)[C@H]1[C@@H]2C` are “Non-Toxic”, 13.3% and 20.2%.
Consider `COc1ccc2[nH]c(C)c(CC(=O)Oc3ccc4c(c3)CC[C@@H]3[C@@H]4CC[C@]4(C)[C@@H]5[C@H](C[C@@H]34)O[C@]3(CC[C@@H](C)CO3)[C@H]5C)c2c1`, for which the Activity result in the series with SH-SY5Y [1] is listed as “Non-Toxic”; in the series with SH-SY5Y [2], 37.7%; with SH-SY5Y [3], 42.3%; in the series with SH-SY5Y [4], 26.9%.
Take `C[C@@H]1CC[C@@]2(OC1)O[C@H]1C[C@H]3[C@@H]4CCc5cc(OC(=O)Cc6c[nH]c7cc(Cl)ccc67)ccc5[C@H]4CC[C@]3(C)[C@H]1[C@@H]2C`: the values for the Activity result in the series on SH-SY5Y [1], in the series with SH-SY5Y [2] and with SH-SY5Y [3] were “Non-Toxic”, 13.4% and 10.9%, respectively.
In the same order, the values of `C[C@@H]1CC[C@@]2(OC1)O[C@H]1C[C@H]3[C@@H]4CCc5cc(OC(=O)Cc6c[nH]c7ccc(Br)cc67)ccc5[C@H]4CC[C@]3(C)[C@H]1[C@@H]2C` are “Non-Toxic”, 15.8% and 4.2%.
With `C[C@@H]1CC[C@@]2(OC1)O[C@H]1C[C@H]3[C@@H]4CCc5cc(OC(=O)NCCc6c[nH]c7ccccc67)ccc5[C@H]4CC[C@]3(C)[C@H]1[C@@H]2C`, the Activity result is “Non-Toxic” in the series with SH-SY5Y [1], 21.5% in the series on SH-SY5Y [2], 40.6% in the series on SH-SY5Y [3] and 42.7% in the series with SH-SY5Y [4].
With `C[C@@H]1CC[C@@]2(OC1)O[C@H]1C[C@H]3[C@@H]4CC=C5C[C@@H](O)CC[C@]5(C)[C@H]4CC[C@]3(C)[C@H]1[C@@H]2C` [DISOGENIN], the Activity in the series with SH-SY5Y [2] amounted to 9.2%; in the series with SH-SY5Y [3], 14.2%; with SH-SY5Y [4], 7.4%.
In the case of `C[C@@H]1CC[C@@]2(OC1)O[C@H]1C[C@H]3[C@@H]4CCc5cc(OC(=O)Cc6c[nH]c7ccccc67)ccc5[C@H]4CC[C@]3(C)[C@H]1[C@@H]2C`, the Activity entry was “Non-Toxic” in the series with SH-SY5Y [1], 18.4% in the series with SH-SY5Y [2], 61.1% in the series with SH-SY5Y [3] and 20.6% in the series with SH-SY5Y [4].
`COc1ccc2c(CC(=O)Oc3ccc4c(c3)CC[C@@H]3[C@@H]4CC[C@]4(C)[C@@H]5[C@H](C[C@@H]34)O[C@]3(CC[C@@H](C)CO3)[C@H]5C)c[nH]c2c1`: in the series on SH-SY5Y [1], the Activity result is on record as “Toxic”.
With `Cc1[nH]c2ccccc2c1CC(=O)Oc1ccc2c(c1)CC[C@@H]1[C@@H]2CC[C@]2(C)[C@@H]3[C@H](C[C@@H]12)O[C@]1(CC[C@@H](C)CO1)[C@H]3C`, the values for the Activity result with SH-SY5Y [1], in the series with SH-SY5Y [2] and with SH-SY5Y [3] were “Non-Toxic”, 22.7% and 30.5%, respectively.
For `Cc1[nH]c2ccccc2c1CCNC(=O)Oc1ccc2c(c1)CC[C@@H]1[C@@H]2CC[C@]2(C)[C@@H]3[C@H](C[C@@H]12)O[C@]1(CC[C@@H](C)CO1)[C@H]3C` the same measures were “Non-Toxic”, 31.1% and 34.4%.
